Experimental data published in PMC9959349, “Discovery of the 3-Amino-1,2,4-triazine-Based Library as Selective PDK1 Inhibitors with Therapeutic Potential in Highly Aggressive Pancreatic Ductal Adenocarcinoma” (International Journal of Molecular Sciences, 2023).

Assays:
recombinant human HSP90 = recombinant human HSP90 (Homo sapiens, UniProt P07900); experiment: HSP90 inhibition assay (Transcreener ADP kit); format: biochemical
Method: The in vitro inhibitory activity of tested compounds on recombinant human HSP90 was assessed by The Transcreener™ ADP kit (Bellbrook Labs) according to the manufacturer’s protocol. Human recombinant HSP90 protein was incubated with tested compounds in the presence of 250 μM ATP at 37 °C for 30 min, 4°C for 30 min and ATPase activity was stopped via the addition of the stop and detect buffer. Following this, samples were incubated for 1 h at room temperature with the ADP2 Antibody and the ADP Alexa594 Tracer. The fluorescence intensity polarization of samples was measured with a Tecan plate reader (Tecan Infinite® M200). The evaluation was based on means from at least three independent experiments.

PSN-1 cells [1] = experiment: Cell death induction, Hoechst 33258 staining; format: cell-based, human; settings: 48 h, IC50 doses
Method: As a last mechanistic evaluation, the ability of selected compounds 5i and 6h to induce cancer cell death by means of apoptosis, was also assessed.
PSN-1 cells were seeded into 8-well tissue-culture slides (BD Falcon, Bedford, MA, USA) at 5 × 10^4 cells/well (0.8 cm^2). […] Samples were examined at 5× and 40× magnification in a Zeiss LSM 800 confocal microscope using the Zeiss ZEN 2.3 software system (Zeiss, Oberkochen, Germany).

PSN-1 cells [2] = experiment: 3D spheroid cytotoxicity, acid phosphatase (APH) assay, PSN-1; settings: read-out: IC50 ±S.D. PSN-1 (3D cytotoxicity); spheroids, 72 h, APH test
Method: (§1) The PDAC cancer spheroids were treated with tested compounds for 72 h, and cell viability was assessed by means of the acid phosphatase (APH) assay (Table 3).
(§2) An APH-modified assay was used for determining cell viability in 3D spheroids, as previously described [61]. Briefly, the pre-seeded spheroids were treated with fresh medium containing the compound to be studied at the appropriate concentration (range 2.5–200 μM). Triplicate cultures were established for each treatment. After 72 h, each well was treated with 100 μL of the assay buffer (0.1 M sodium acetate, 0.1% Triton-X-100, supplemented with ImmunoPure p-nitrophenyl phosphate; Sigma Chemical Co., Ltd.) and, following 3 h of incubation, 10 μL of 1 M NaOH solution was added. […] The mean absorbance for each drug dose was expressed as a percentage of the control untreated well absorbance (T/C) and plotted vs. drug concentration. […] The evaluation was based on means from at least four independent experiments.

PSN-1 cells [3] = experiment: TEM analysis of mitochondria; format: cell-based, human; settings: 24 h, IC50 concentrations
Method: In addition, TEM analyses were performed on PSN-1 cancer cells after 24 h treatment with IC50 concentrations of the representative compounds 5i and 6h.
About 10^6 PSN-1 cancer cells were seeded in 24-well plates and, after 24 h incubation, were treated with IC50 concentrations of tested compounds and incubated for an additional 24 h. Cells were then washed with cold PBS, harvested, and directly fixed with 1.5% glutaraldehyde buffer with 0.2 M sodium cacodylate, pH 7.4. After washing with buffer and postfixation with 1% OsO4 in 0.2 M cacodylate buffer, specimens were dehydrated and embedded in epoxy resin (Epon Araldite). Sagittal serial sections (1 μm) were counterstained with toluidine blue; thin sections (90 nm) were given contrast by staining with uranyl acetate and lead citrate. Micrographs were taken with a Hitachi H-600 electron microscope (Hitachi, Tokyo, Japan) operating at 75 kV. All photos were typeset in Corel Draw 11.

[4] = tested on: caspase-3 and -8 in PSN-1 cells; experiment: Caspase-3 and -8 activity; format: cell-based, human; settings: 24 h, IC50 doses
Method: Apoptotic cell death can be triggered by a mitochondria-mediated or mitochondrial-independent pathways. In the […], caspase-8 and caspase-3 play an essential role. […] Staurosporine (STS), an alkaloid inducing apoptosis through caspase-3 and -8 activation was used as a positive control. […] Caspase-3 and -8 cleavage reached values similar to that induced by the well-known caspase-dependent apoptosis inducer staurosporine (Figure 10C).
Protein aliquots (100 μg) were stained at 37 °C for 60 min with fluorescent caspase-3 (N-acetyl-Asp-Glu-Val-Asp-AMC, AMC = 7-amino-4-methylcoumarin) or caspase-8 (Ac-Val-Glu-Thr-Asp-AMC) substrates. Substrate hydrolysis was measured after 60 min by monitoring the release of AMC using a a Tecan microplate reader (excitation at 370 nm, emission at 460 nm).

PSN-1 cells [5] = experiment: Mitochondrial membrane potential (Mito-ID kit); format: cell-based, human; settings: IC50 concentrations
Method: The ΔΨ was assayed using the Mito-ID® Membrane Potential Kit according to the manufacturer’s instructions (Enzo Life Sciences, Farmingdale, NY, USA) as previously described. Briefly, PSN-1 cells (8 × 10^3 per well) were seeded in 96-well plates; after 24 h, cells were washed with PBS and loaded with Mito-ID Detection Reagent for 30 min at 37 °C in the dark. Afterward, cells were incubated with tested compounds for 60 min. CCCP (Carbonyl cyanide 3-chlorophenyl-hydrazone) was used as the positive control. Fluorescence intensity was estimated using a VICTOR X3 (PerkinElmer, Waltham, MA, USA) plate reader at 490 (excitation) and 590 nm (emission).

recombinant human PDK1 = recombinant human PDK1 (Homo sapiens, UniProt Q15118); experiment: ADP-Glo kinase assay, PDK1
Method: The ability of tested compounds to inhibit the activity of PDK 1–4 isoforms was primarily assessed in cell-free experiments by a chemioluminescent assay, the ADPGlo™ Kinase Assay kit from Promega (Promega Corporation, Madison, WI, USA).
The in vitro inhibitory activity of tested compounds on recombinant human PDK1-4 isoforms (Abcam, Cambridge, MA, USA) was evaluated by using the ADPGlo™ Kinase Assay kit from Promega (Promega Corporation, Madison, WI, USA) following the instructions of the manufacturer. […] The reaction was then started by the addition of substrate/ATP for 60 min at room temperature. Subsequently, ADP-Glo™ reagent was added and incubated for 40 min prior to kinase detection reagent addition. After 30 min, the luminescence was measured with a Tecan plate reader (Tecan Infinite® M200). Raw data were normalized to the values of control wells and luminescence values for each drug dose were expressed as a percentage of the luminescence of control untreated wells. […] The evaluation was based on means from at least three independent experiments.

PSN-1 cells [6] = experiment: ROS production (CM-H2DCFDA); format: cell-based, human; settings: 5 µM test compounds, antimycin 3 µM as positive control
Method: Consistently, tested compounds, although to different extents, were effective in reducing total cellular sulfhydryl contents in PSN-1-treated cells (Figure 9B).
The production of ROS was measured in PSN-1 cells (10^4 per well) grown for 24 h in a 96-well plate in RPMI medium without phenol red (Sigma Aldrich, Germany). Cells were then washed with PBS and loaded with 10 μM 5-(and-6)-chloromethyl-2′,7′-dichlorodihydrofluorescein diacetate acetylester (CM–H2DCFDA) (Molecular Probes-Invitrogen, Eugene, OR, USA) for 45 min, in the dark. Afterward, cells were washed with PBS and incubated with tested compounds. Fluorescence increase was estimated utilizing the wavelengths of 485 nm (excitation) and 527 nm (emission) in a VICTOR X3 (PerkinElmer, USA) plate reader. Antimycin (3 μM, Sigma Aldrich), a potent inhibitor of Complex III in the electron transport chain, was used as the positive control.

BxPC-3 cells = experiment: 3D spheroid cytotoxicity, acid phosphatase (APH) assay, BxPC-3; settings: read-out: IC50 ±S.D. BxPC-3 (3D cytotoxicity); spheroids, 72 h, APH test
Method: as §1, §2

Sequence of recombinant human PDK1 (Q15118 29-436): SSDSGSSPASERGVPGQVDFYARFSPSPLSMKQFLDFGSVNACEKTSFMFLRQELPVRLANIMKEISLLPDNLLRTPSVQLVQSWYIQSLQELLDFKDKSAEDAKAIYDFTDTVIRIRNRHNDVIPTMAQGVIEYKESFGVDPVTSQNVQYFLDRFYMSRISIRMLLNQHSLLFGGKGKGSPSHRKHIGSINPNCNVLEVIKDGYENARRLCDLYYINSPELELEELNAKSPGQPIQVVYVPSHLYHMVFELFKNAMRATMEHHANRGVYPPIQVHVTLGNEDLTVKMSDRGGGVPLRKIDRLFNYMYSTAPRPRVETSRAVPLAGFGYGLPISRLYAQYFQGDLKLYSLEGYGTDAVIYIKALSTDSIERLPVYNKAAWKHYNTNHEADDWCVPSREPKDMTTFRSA

IC50 (recombinant human HSP90): 0.2 µM
effect on HSP90 enzyme activity (recombinant human HSP90; 1.5 µM compound): completely abolish the enzyme activity
IC50 (recombinant human PDK1): 0.08 ± 0.01 µM
effect on enzymatic activity of PDK1 (recombinant human PDK1; 1.5 µM compound, 30 min preincubation): totally suppressed
SMILES: COc1ccc2c(c1)c(-c1nnc(N)nc1-c1cn(C)c3ccccc13)cn2C [6h]
apoptosis induction (nuclear morphology) (PSN-1 cells [1]): brightly stained nuclei and morphological features typical of cells undergoing apoptosis
IC50 (PSN-1 cells [2]): 24.3 ± 1.4 µM
mitochondrial morphology (TEM) (PSN-1 cells [3]): dramatic swelling of the mitochondria
caspase-3 and -8 activation [4]: significantly activated
percentage of cells with hypopolarized mitochondrial membrane potential (in words) (PSN-1 cells [5]): significantly increased
ROS basal level production / hydrogen peroxide formation (PSN-1 cells [6]): increase in the ROS basal level production
IC50 (BxPC-3 cells): 33.4 ± 3.6 µM
